Data set [1] deals with Glycogen synthase kinase-3 beta (Homo sapiens, UniProt P49841, H355L). Nature of the data set: Displacement of FL-KRREILSRRP[ps]ERYR-NH2 from human recombinant N-terminal His6-tagged GSK-3-beta (14 to 306 residues) H355L mutant expressed in baculovirus-infected Sf21 cells incubated for 20 hrs by fluorescence based analysis.
Data set [2] is described as follows: Selectivity ratio of IC50 for human recombinant full length GST-tagged GSK-3-alpha expressed in insect cells to IC50 for human recombinant N-terminal His6-tagged GSK-3-beta (14 to 306 residues) H355L mutant expressed in baculovirus-infected Sf21 cells.
Data set [3] addresses Glycogen synthase kinase-3 alpha (Homo sapiens, UniProt P49840). Nature of the data set: Displacement of FL-KRREILSRRP[ps]ERYR-NH2 from human recombinant full length GST-tagged GSK-3-alpha expressed in insect cells incubated for 20 hrs by fluorescence based analysis. Further details: species or system Insect cell.
Data set [4] is described as follows: Metabolic stability in human liver microsomes assessed as parent compound remaining at 0.5 uM measured after 10 mins in presence of NADPH by LC-MS/MS analysis. In kind it is ADME, Microsome. As to conditions: read-out: Stability.
The nature of data set [5]: Permeability of the compound from basolateral to apical side in human Caco-2 cells at 3 uM incubated for 2 hrs by LC-MS/MS analysis. The class given is ADME, cell-based. Particulars: read-out: permeability. (Caco-2 monolayers are a common model of the intestinal barrier.)
Data set [6] is described as follows: Permeability of the compound from apical to basolateral side in human Caco-2 cells at 3 uM incubated for 2 hrs by LC-MS/MS analysis. In kind it is ADME, cell-based. As to conditions: read-out: permeability.
Data set [7] can be described thus: AUC (total) in C57BL/6 mouse at 10 mg/kg, po by LC-MS/MS analysis. In kind it is ADME, organism-based. Further details: dose 10 mg/kg, route po. Particulars: in vivo.
The nature of data set [8]: Protein binding in rat plasma assessed as unbound fraction at 10 uM incubated for 5 hrs by equilibrium dialysis method. In kind it is ADME, cell-free. Background: In equilibrium dialysis free small molecules cross a membrane that holds back macromolecules.
The nature of data set [9]: Protein binding in human plasma assessed as unbound fraction at 10 uM incubated for 5 hrs by equilibrium dialysis method. The class given is ADME, cell-free.
Data set [10] is described as follows: Permeability of the compound at 100 uM incubated for 4 hrs at pH 7.4 by PAMPA assay. The class given is ADME. Particulars: read-out: permeability. (In general: The PAMPA barrier holds no transporters, so it reflects passive diffusion.)
Data set [11] is described as follows: Half life in C57BL/6 mouse at 2 mg/kg, iv by LC-MS/MS analysis. As to conditions: in vivo. The class given is ADME, organism-based.
Data set [12] is described as follows: Oral bioavailability in C57BL/6 mouse at 10 mg/kg by LC-MS/MS analysis. Particulars: in vivo. In kind it is ADME, organism-based.
Data set [13] in a line: Clearance in C57BL/6 mouse at 2 mg/kg, iv by LC-MS/MS analysis. The class given is ADME, organism-based. As to conditions: in vivo.
Data set [14] is described as follows: Metabolic stability in rat liver microsomes assessed as parent compound remaining at 0.5 uM measured after 10 mins in presence of NADPH by LC-MS/MS analysis. In kind it is ADME, Microsome. Particulars: read-out: Stability.
Data set [15] in a line: Metabolic stability in mouse liver microsomes assessed as parent compound remaining at 0.5 uM measured after 10 mins in presence of NADPH by LC-MS/MS analysis. In kind it is ADME, Microsome. As to conditions: read-out: Stability.
In data set [16] the target is Glycogen synthase kinase-3 (Homo sapiens, UniProt P49840+P49841). The data set is described as follows: Inhibition of GSK-3 in human U2OS cells transfected with beta-catenin GFP and 4R1N tau plasmid assessed as inhibition of Tau phosphorylation at Ser396 residues by high-content imaging assay. In kind it is cell-based.
The nature of data set [17]: MRT in C57BL/6 mouse at 2 mg/kg, iv by LC-MS/MS analysis. In kind it is ADME, organism-based. As to conditions: in vivo.
A short description of data set [18]: Volume of distribution at steady state in C57BL/6 mouse at 2 mg/kg, iv by LC-MS/MS analysis. Particulars: in vivo, read-out: Vdss. The class given is ADME, organism-based.
Data set [19] can be described thus: Protein binding in mouse plasma assessed as unbound fraction at 10 uM incubated for 5 hrs by equilibrium dialysis method. In kind it is ADME, cell-free.
A short description of data set [20]: Cmax in C57BL/6 mouse at 10 mg/kg, po by LC-MS/MS analysis. In kind it is ADME, organism-based. Further details: dose 10 mg/kg, route po. As to conditions: in vivo.
The nature of data set [21]: Permeability of the compound at 100 uM incubated for 4 hrs at pH 5.5 by PAMPA assay. In kind it is ADME. Particulars: read-out: permeability.

Where only a bound is given, the exact number is not on record here.

Chain of Glycogen synthase kinase-3 beta (P49841 whole entry, looked up, stated change not applied, the tested form may be a part): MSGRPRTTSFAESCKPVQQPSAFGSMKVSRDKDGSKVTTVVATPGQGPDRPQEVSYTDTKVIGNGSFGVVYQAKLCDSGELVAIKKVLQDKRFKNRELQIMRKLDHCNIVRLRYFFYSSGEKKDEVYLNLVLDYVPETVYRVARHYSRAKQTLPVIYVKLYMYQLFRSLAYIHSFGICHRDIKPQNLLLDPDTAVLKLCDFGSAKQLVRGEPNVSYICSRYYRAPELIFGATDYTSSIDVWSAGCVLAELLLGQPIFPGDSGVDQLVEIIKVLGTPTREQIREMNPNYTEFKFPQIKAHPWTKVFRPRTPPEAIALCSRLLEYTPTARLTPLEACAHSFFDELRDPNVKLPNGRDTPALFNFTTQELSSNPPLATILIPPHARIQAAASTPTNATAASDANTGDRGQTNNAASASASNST
Chain of Glycogen synthase kinase-3 alpha (P49840 whole entry): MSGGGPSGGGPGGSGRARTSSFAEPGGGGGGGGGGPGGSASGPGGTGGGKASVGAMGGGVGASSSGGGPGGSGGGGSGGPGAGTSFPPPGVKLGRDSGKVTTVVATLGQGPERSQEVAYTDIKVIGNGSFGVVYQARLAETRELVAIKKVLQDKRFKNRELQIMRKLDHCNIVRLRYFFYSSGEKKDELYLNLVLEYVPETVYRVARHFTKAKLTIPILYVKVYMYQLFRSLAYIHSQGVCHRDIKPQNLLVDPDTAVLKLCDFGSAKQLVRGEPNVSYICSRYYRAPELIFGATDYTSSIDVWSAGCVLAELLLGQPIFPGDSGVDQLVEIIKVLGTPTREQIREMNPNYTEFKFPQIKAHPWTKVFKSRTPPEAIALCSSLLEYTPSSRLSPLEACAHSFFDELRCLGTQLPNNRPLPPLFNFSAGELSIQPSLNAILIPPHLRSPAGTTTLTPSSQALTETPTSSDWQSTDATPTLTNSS

Take `Nc1nccc(C(=O)Nc2cccnc2)n1`: the IC50 in [1] and in data set [3] was above 2000 nM in each case. Also, in [2], the Ratio IC50 was below 2.

Consider `O=C(Nc1cnccc1-c1ccc(F)cc1)c1ccnc(Nc2ccc(Cl)cc2)n1`, for which the values for the remaining at 10 min, 0.5 µM in data set [4], in [14] and in [15] were 80%, 43% and 79%, respectively. For the same compound, the Papp B→A at 2 h, 3 µM in [5] turned out to be 2.3 ×10⁻⁶ cm/s. For the same compound, in [6], the Papp A→B at 2 h, 3 µM was 6.4 ×10⁻⁶ cm/s. In addition, in data set [7], the AUC is 5.8 µM·h. The fraction unbound at 5 h, 10 µM in data set [8] worked out at 0.003; in data set [9], 0.002; in data set [19] it was 0.004. Further, the Papp at 4 h, 100 µM in [10] turned out to be 63.9 ×10⁻⁶ cm/s. This compound also had a half-life in data set [11] of 2.9 h. Further, the concentration for half-maximal inhibition (IC50) in [1] is 1.1 nM; in [16] it was 77 nM; in [3], 0.88 nM. Moreover, the bioavailability in data set [12] stood at 23%. The same compound showed a clearance in data set [13] of 15.8 mL/min/kg. This compound also came in with an MRT in [17] of 3.4 h. For the same compound, the Vd in data set [18] was determined as 3.3 L/kg. In data set [20], this compound had a Cmax of 1400 nM.

As to `O=C(Nc1cnccc1-c1ccccc1)c1ccnc(Nc2ccc(Cl)cc2)n1`, the remaining at 10 min, 0.5 µM in [4] stood at 78%; in data set [14], 70%; in data set [15] it was 86%. In addition, the Papp B→A at 2 h, 3 µM in data set [5] came to 3 ×10⁻⁶ cm/s. Further, the Papp A→B at 2 h, 3 µM in [6] was 8.3 ×10⁻⁶ cm/s. Moreover, the Papp at 4 h, 100 µM was determined as 85 ×10⁻⁶ cm/s in data set [10] and 90 ×10⁻⁶ cm/s in data set [21]. The values for the IC50 in data set [1], in [16] and in data set [3] were 0.49 nM, 70 nM and 0.3 nM, respectively.

In the case of `O=C(Nc1cnccc1OCC(F)(F)F)c1ccnc(Nc2ccc(C(F)(F)F)cc2)c1`, the IC50 is 20 nM in data set [1], 820 nM in data set [16] and 10 nM in data set [3].

As for `O=C(Nc1cnccc1N1CCC(F)(F)CC1)c1ccncn1`, the IC50 in [1] turned out to be 260 nM; in [3], 470 nM. In addition, the Ratio IC50 in data set [2] was below 2.

As to `O=C(Nc1cnccc1OCC(F)(F)F)c1ccnc(Nc2ccc(C(F)(F)F)cc2)n1`, the remaining at 10 min, 0.5 µM in data set [4] was 82%; in [14] it was 82%; in [15], 87%. For the same compound, the IC50 in data set [1] came to 0.28 nM; in [16] it was 10 nM.

As to `O=C(Nc1cnccc1-c1ccc(F)cc1)c1ccnc(Nc2ccc(C(F)(F)F)cc2)n1`, the remaining at 10 min, 0.5 µM in data set [4], in [14] and in data set [15] was 100% each time. Besides, the IC50 in data set [1] amounted to 2.1 nM; in data set [16] it was 100 nM.

With `Nc1nccc(C(=O)Nc2cnccc2N2CCC(F)(F)CC2)n1`, the IC50 in [1] came out at 30 nM. In addition, the Ratio IC50 in data set [2] is below 2.

Regarding `O=C(Nc1cccnc1)c1ccncn1`, the IC50 in data set [1] and in data set [3] was above 2000 nM throughout. In data set [2], the Ratio IC50 was below 2.

`O=C(Nc1cncnc1OCC(F)(F)F)c1ccnc(Nc2ccccc2)n1`: the values for the remaining at 10 min, 0.5 µM in data set [4], in data set [14] and in data set [15] were 20%, 8% and 7%, respectively. The IC50 in data set [1] was 1.1 nM; in data set [16], 77 nM.

Regarding `O=C(Nc1cnccc1-c1ccc(F)cc1)c1ccnc(Nc2ccc(OC(F)F)cc2)n1`, the remaining at 10 min, 0.5 µM came out at 82% in data set [4], 62% in data set [14] and 72% in [15]. Also, the Papp B→A at 2 h, 3 µM in data set [5] stood at 3 ×10⁻⁶ cm/s. Moreover, the Papp A→B at 2 h, 3 µM in data set [6] is 8.2 ×10⁻⁶ cm/s. Besides, the values for the fraction unbound at 5 h, 10 µM in data set [8] and in data set [9] were 0.004 and 0.003, respectively. The values for the Papp at 4 h, 100 µM in data set [10] and in [21] were 113 ×10⁻⁶ cm/s and 98 ×10⁻⁶ cm/s, respectively. Also, the IC50 worked out at 0.45 nM in data set [1], 74 nM in data set [16] and 0.26 nM in data set [3].

On to `COc1ccc(Nc2nccc(C(=O)Nc3cnccc3-c3ccccc3)n2)cc1`, for which the remaining at 10 min, 0.5 µM turned out to be 21% in data set [4], 3% in [14] and 45% in [15]. Also, the IC50 in [1] was found to be 0.45 nM; in data set [16], 50 nM.

As to `N#Cc1ccc(Nc2nccc(C(=O)Nc3cnccc3-c3ccccc3)n2)c(Cl)c1`, the remaining at 10 min, 0.5 µM in data set [4] came out at 77%; in [14], 60%; in data set [15] it was 68%. Moreover, the IC50 in data set [1] stood at 3.8 nM; in [16], 470 nM.

`O=C(Nc1cnccc1-c1ccccc1)c1ccnc(Nc2ccccc2)n1`: the remaining at 10 min, 0.5 µM in [4] was determined as 52%; in data set [14], 3%; in data set [15], 26%. Moreover, the values for the half-maximal inhibitory concentration (IC50) in [1] and in [16] were 0.43 nM and 100 nM, respectively.

With `N#Cc1ccc(Nc2nccc(C(=O)Nc3cnccc3-c3ccccc3)n2)cc1Cl`, the remaining at 10 min, 0.5 µM in data set [4] came out at 65%; in data set [14], 47%; in data set [15], 50%. The values for the IC50 in data set [1] and in data set [16] were 0.24 nM and 20 nM, respectively.

With `O=C(Nc1cnccc1-c1ccccc1)c1ccnc(Nc2ccc(Cl)cc2)c1`, the IC50 in data set [1] worked out at 13 nM; in [16], 1650 nM; in [3], 8.6 nM.

As for `O=C(Nc1cnccc1-c1ccccc1)c1ccnc(Nc2cccnc2)n1`, the remaining at 10 min, 0.5 µM was 52% in [4], 28% in data set [14] and 12% in data set [15]. Also, the results for the IC50 in data set [1] and in [16] were 1.2 nM and 46 nM, respectively.

On to `N#Cc1ccc(Nc2nccc(C(=O)Nc3cncnc3OCC(F)(F)F)n2)cc1`, for which the remaining at 10 min, 0.5 µM in data set [4] was found to be 87%; in data set [14], 61%; in data set [15], 42%. Besides, the values for the IC50 in data set [1], in data set [16] and in data set [3] were 0.74 nM, 22 nM and 0.15 nM, respectively.

Turning to `Cc1ccc(Nc2nccc(C(=O)Nc3cnccc3-c3ccccc3)n2)cc1`, the remaining at 10 min, 0.5 µM turned out to be 43% in [4], 1% in data set [14] and 49% in data set [15]. For the same compound, the results for the IC50 in data set [1] and in data set [16] were 0.31 nM and 71 nM, respectively.

On to `O=C(Nc1cnccc1OCC(F)(F)F)c1ccnc(Nc2ccccc2)n1`, for which the remaining at 10 min, 0.5 µM in [4] came out at 59%; in data set [14] it was 2%; in data set [15] it was 14%. Moreover, the IC50 in [1] is 0.2 nM; in data set [16], 13 nM.

Broadly, the IC50 is the point on the concentration scale where inhibition reaches its midpoint. As usually defined, the AUC is the area under the concentration-time curve, a measure of exposure. A word on the fraction unbound: it is the share of the substance not bound to proteins or other matrix. Usually half-life stands for the time needed for the level to fall by half in the phase considered. Read a low half-life as fast loss. As a reminder, the bioavailability is dose-corrected exposure relative to a reference, in per cent. As usually defined, the clearance is a measure of how efficiently the substance is removed, as volume per time. A low value points to inefficient removal. As usually defined, the MRT is a mean duration of stay, worked out from the concentration-time curve. As a reminder, the Cmax is the maximum level reached in the sampled fluid or tissue.
